{
  "source": "ChEMBL document CHEMBL5357036",
  "about": "“Latest developments in coumarin-based anticancer agents: mechanism of action and structure-activity relationship studies” (RSC Med Chem, 2024)",
  "key": {"[1]": {"tested_on": "MCF7", "assay": "Antiproliferative activity against human MCF7 cells assessed as reduction in cell viability incubated for 48 hrs by cell titer-glo assay", "type": "functional, cell-based", "details": "MCF7, 48 h"}, "[2]": {"tested_on": "MCF7", "assay": "Anticancer activity against human MCF7 cells after 48 hrs by SRB assay", "type": "functional, cell-based", "details": "MCF7, 48 h"}},
  "data": [
    {"smiles": "CCN(C)S(=O)(=O)c1ccc(/C(C)=N/NC(=O)c2cc3ccccc3oc2=O)cc1", "values": [
      {"measurement": "IC50", "setting": "[1]", "value": 2560, "unit": "nM"}
    ]},
    {"smiles": "COc1ccc2nc(SCc3cc(=O)oc4ccc(C(C)(C)C)cc34)[nH]c2c1", "values": [
      {"measurement": "IC50", "setting": "[2]", "value": 180, "unit": "nM"}
    ]}
  ]
}
